The test system of this test is A549 NSCLC cells. In words: Cellular cytotoxicity assay (Alamar Blue), A549. The class given is cell-based. The following applies: Homo sapiens, 72 h, upper end given as ≧100, read-out: IC50 (μM), cytotoxicity towards A549 NSCLC cells. The method, then: The anti-proliferative activity of the histone deacetylase inhibitory compounds as described herein, is evaluated using the following cell lines: HeLa and HeLa-KB (cervical carcinoma), H460 (non small cell lung cancer), A549 (non-small cell lung cancer), MCF7 (breast carcinoma), MCF10A (normal, non tumorigenic breast epithelial), MDA-MB468 (breast carcinoma), MDA-MB435 (breast carcinoma), MDA-MB231 (breast carcinoma), SKBR-3 (breast carcinoma), SKOV-3 (ovarial carcinoma), A-2780 (ovarial carcinoma), RKO (colon carcinoma), HCT-15 (colon carcinoma), HCT-116 (colon carcinoma), PC3 (prostate carcinoma), BPH1 (benign prostate hyperplasia), AsPC1 (pancreatic carcinoma), Ca127 (tongue carcinoma), A-431 (vulva carcinoma), Hec1A (endometrial carcinoma), Saos-2 (osteosarcoma), U87MG (glioblastoma), WM266-4 (melanoma), K562 (chronic myeloid leukemia), EOL1 (acute hypereosinophilic myeloid leukemia), CCRF-CEM and CCRF-CEM VCR1000 (acute lymphoblastic leukemia sensitive and resistant towards Vincristine). For quantification of cellular proliferation/living cells the Alamar Blue (Resazurin) cell viability assay is applied (O'Brien et al. Eur J Biochem 267, 5421-5426, 2000). In this assay Resazurin is reduced to the fluorescent resorufine by cellular dehydrogenase activity, correlating with viable, proliferating cells. The examples are dissolved as 20 mM solutions in dimethylsulfoxide (DMSO) and subsequently diluted in semi-logarithmic steps. Cell lines are seeded at respective density into 96 well flat bottom plates in a volume of 200 μl per well. 24 h after seeding 1 μl each of the compound dilutions are added into each well of the 96 well plate. Each compound dilution is tested as quadruplicates. Wells containing untreated control cells are filled with 200 μl DMEM medium containing 0.5% v:v DMSO. The cells are then incubated with the compounds for 72 h at 37° C. in a humidified atmosphere containing 5% carbon dioxide. To determine the viability of the cells, 20 μl of a Resazurin solution (Sigma; 90 mg/l) are added. After 4 h incubation at 37° C. the fluorescence is measured at an extinction of λ=544 nm and an emission of λ=590 nm. For the calculation of the cell viability the emission value from untreated cells is set as 100% viability and the emission rates of treated cells are set in relation to the values of untreated cells. Viabilities are expressed as % values. The corresponding IC50 values of the compounds for cytotoxic activity are determined from the concentration-effect curves by means of non-linear regression.

Where a name gives a salt, the structure may show the parent alone.

Regarding `CCCCNC(=O)C(=O)N1CCc2nc(C(=O)Nc3cc(C(C)C)ccc3N)sc2C1` [Example 84, N-(2-amino-5-isopropylphenyl)-5-[(butylamino)(oxo)acetyl]-4,5,6,7-tetrahydro[1,3]thiazolo[5,4-c]pyridine-2-carboxamide], the IC50 was no less than 0.2 µM.
With `Nc1ccccc1NC(=O)c1nc2c(s1)CN(C(=O)C(=O)NCc1ccccc1)CC2` [Example 85, N-(2-aminophenyl)-5-[(benzylamino)(oxo)acetyl]-4,5,6,7-tetrahydro[1,3]thiazolo[5,4-c]pyridine-2-carboxamide], the IC50 is no less than 0.2 µM.
Turning to `Nc1ccccc1NC(=O)c1nc2c(s1)CN(C(=O)c1ccc(-c3ccccc3)cc1)CC2` [Example 88, N-(2-aminophenyl)-5-(biphenyl-4-ylcarbonyl)-4,5,6,7-tetrahydro[1,3]thiazolo[5,4-c]pyridine-2-carboxamide], the IC50 was no less than 0.2 µM.
For `Cc1ccc(C(=O)N2CCc3nc(C(=O)Nc4ccccc4N)sc3C2)cc1` [Example 89, N-(2-aminophenyl)-5-(4-methylbenzoyl)-4,5,6,7-tetrahydro[1,3]thiazolo[5,4-c]pyridine-2-carboxamide], the IC50 is no less than 0.2 µM.
Take `COC(=O)c1ccc(C(=O)N2CCc3nc(C(=O)Nc4ccccc4N)sc3C2)cc1` [Example 90, Methyl 4-({2-[(2-aminophenyl)carbamoyl]-6,7-dihydro[1,3]thiazolo[5,4-c]pyridin-5(4H)-yl}carbonyl)benzoate]: the IC50 is no less than 0.2 µM.
For the molecule `CN(C)c1ccc(C(=O)N2CCc3nc(C(=O)Nc4ccccc4N)sc3C2)cc1` [Example 91, N-(2-aminophenyl)-5-[4-(dimethylamino)benzoyl]-4,5,6,7-tetrahydro[1,3]thiazolo[5,4-c]pyridine-2-carboxamide], the IC50 was no less than 0.2 µM.
For the molecule `COc1ccc(C(=O)N2CCc3nc(C(=O)Nc4ccccc4N)sc3C2)cc1` [Example 93, N-(2-aminophenyl)-5-(4-methoxybenzoyl)-4,5,6,7-tetrahydro[1,3]thiazolo[5,4-c]pyridine-2-carboxamide], the IC50 is no less than 0.2 µM.
On to `Nc1ccccc1NC(=O)c1nc2c(s1)CN(C(=O)c1cnc3ccccc3c1)CC2` [Example 94, N-(2-aminophenyl)-5-(quinolin-3-ylcarbonyl)-4,5,6,7-tetrahydro[1,3]thiazolo[5,4-c]pyridine-2-carboxamide], for which the IC50 is no less than 0.2 µM.
As to `Nc1ccccc1NC(=O)c1nc2c(s1)CN(C(=O)c1ccc3ccccc3c1)CC2` [Example 95, N-(2-aminophenyl)-5-(2-naphthoyl)-4,5,6,7-tetrahydro[1,3]thiazolo[5,4-c]-pyridine-2-carboxamide], the IC50 is no less than 0.2 µM.
As for `CN(C)c1cccc(C(=O)N2CCc3nc(C(=O)Nc4ccccc4N)sc3C2)c1` [Example 97, N-(2-aminophenyl)-5-[3-(dimethylamino)benzoyl]-4,5,6,7-tetrahydro[1,3]thiazolo[5,4-c]pyridine-2-carboxamide], the figure is no less than 0.2 µM; as for `Nc1ccccc1NC(=O)c1nc2c(s1)CN(C(=S)Nc1ccccc1)CC2` [Example 98, N-(2-aminophenyl)-5-(anilinocarbonothioyl)-4,5,6,7-tetrahydro[1,3]thiazolo[5,4-c]pyridine-2-carboxamide], no less than 0.2 µM; as for `CN(C)c1ccc(NC(=S)N2CCc3nc(C(=O)Nc4ccccc4N)sc3C2)cc1` [Example 99, N-(2-aminophenyl)-5-({[4-(dimethylamino)phenyl]amino}carbonothioyl)-4,5,6,7-tetrahydro[1,3]thiazolo[5,4-c]pyridine-2-carboxamide], no less than 0.2 µM.
Regarding `Nc1ccccc1NC(=O)c1nc2c(s1)CN(C(=S)NC1CCNCC1)CC2` [Example 100, N-(2-aminophenyl)-5-[(piperidin-4-ylamino)carbonothioyl]-4,5,6,7-tetrahydro[1,3]thiazolo[5,4-c]pyridine-2-carboxamide], the IC50 is no less than 0.2 µM.
In the case of `Nc1ccccc1NC(=O)c1nc2c(s1)CN(C(=S)NC1CCC(c3cccnc3)CC1)CC2` (stereo not shown) [Example 101, N-(2-aminophenyl)-5-{[(4-pyridin-3-ylcyclohexyl)amino]carbonothioyl}-4,5,6,7-tetrahydro[1,3]thiazolo[5,4-c]pyridine-2-carboxamide] it was no less than 0.2 µM; in that of `COc1ccc(N)c(NC(=O)c2nc3c(s2)CN(C(=S)Nc2ccccc2)CC3)c1` [Example 102, N-(2-amino-5-methoxyphenyl)-5-(anilinocarbonothioyl)-4,5,6,7-tetrahydro[1,3]thiazolo[5,4-c]pyridine-2-carboxamide], no less than 0.2 µM.
`Nc1ccccc1NC(=O)c1nc2c(s1)CN(C(=S)Nc1cccnc1)CC2` [Example 103, N-(2-aminophenyl)-5-[(pyridin-3-ylamino)carbonothioyl]-4,5,6,7-tetrahydro[1,3]thiazolo[5,4-c]pyridine-2-carboxamide]: the IC50 is no less than 0.2 µM.
With `Nc1ccccc1NC(=O)c1nc2c(s1)CN(C(=S)Nc1cccc3cnccc13)CC2` [Example 104, N-(2-aminophenyl)-5-[(isoquinolin-5-ylamino)carbonothioyl]-4,5,6,7-tetrahydro[1,3]thiazolo[5,4-c]pyridine-2-carboxamide], the IC50 was no less than 0.2 µM.
As to `CCCCNC(=S)N1CCc2nc(C(=O)Nc3ccccc3N)sc2C1` [Example 105], the IC50 is no less than 0.2 µM.
Take `COc1ccc(NC(=S)N2CCc3nc(C(=O)Nc4cc(OC)ccc4N)sc3C2)cc1` [Example 106, N-(2-amino-5-methoxyphenyl)-5-{[(4-methoxyphenyl)amino]carbonothioyl}-4,5,6,7-tetrahydro[1,3]thiazolo[5,4-c]pyridine-2-carboxamide]: the IC50 was no less than 0.2 µM.
`COc1ccc(N)c(NC(=O)c2nc3c(s2)CN(C(=S)Nc2cccnc2)CC3)c1` [Example 107, N-(2-amino-5-methoxyphenyl)-5-[(pyridin-3-ylamino)carbonothioyl]-4,5,6,7-tetrahydro[1,3]thiazolo[5,4-c]pyridine-2-carboxamide]: the IC50 was no less than 0.2 µM.
As to `CC(C)c1ccc(N)c(NC(=O)c2nc3c(s2)CN(C(=S)Nc2cccnc2)CC3)c1` [Example 108, N-(2-amino-5-isopropylphenyl)-5-[(pyridin-3-ylamino)carbonothioyl]-4,5,6,7-tetrahydro[1,3]thiazolo[5,4-c]pyridine-2-carboxamide], the IC50 is no less than 0.2 µM.
As for `CC(C)c1ccc(N)c(NC(=O)c2nc3c(s2)CN(C(=S)Nc2ccccc2)CC3)c1` [Example 109, N-(2-amino-5-isopropylphenyl)-5-(anilinocarbonothioyl)-4,5,6,7-tetrahydro[1,3]thiazolo[5,4-c]pyridine-2-carboxamide], the figure is no less than 0.2 µM.
With `COc1ccc(NC(=S)N2CCc3nc(C(=O)Nc4cc(C(C)C)ccc4N)sc3C2)cc1` [Example 110, N-(2-amino-5-isopropylphenyl)-5-{[(4-methoxyphenyl)amino]carbonothioyl}-4,5,6,7-tetrahydro[1,3]thiazolo[5,4-c]pyridine-2-carboxamide], the IC50 is no less than 0.2 µM.
Take `COc1ccc(NC(=N)N2CCc3nc(C(=O)Nc4ccccc4N)sc3C2)cc1` [Example 111, N-(2-aminophenyl)-5-{imino[(4-methoxyphenyl)amino]methyl}-4,5,6,7-tetrahydro[1,3]thiazolo[5,4-c]pyridine-2-carboxamide]: the IC50 was no less than 0.2 µM.
Consider `CN=C(Nc1ccccc1)N1CCc2nc(C(=O)Nc3ccccc3N)sc2C1` [Example 114, N-(2-aminophenyl)-5-[anilino(methylimino)methyl]-4,5,6,7-tetrahydro[1,3]thiazolo[5,4-c]pyridine-2-carboxamide. (Dihydrochloride)], for which the IC50 was no less than 0.2 µM.
`CN=C(Nc1ccc(OC)cc1)N1CCc2nc(C(=O)Nc3cc(OC)ccc3N)sc2C1` [Example 115, N-(2-amino-5-methoxyphenyl)-5-[[(4-methoxyphenyl)amino](methylimino)methyl]-4,5,6,7-tetrahydro[1,3]thiazolo[5,4-c]pyridine-2-carboxamide]: the IC50 is no less than 0.2 µM.
On to `Cc1ccccc1NC(=NC#N)N1CCc2nc(C(=O)Nc3ccccc3N)sc2C1` [Example 119, N-(2-aminophenyl)-5-{(cyanoimino)[(2-methylphenyl)amino]methyl}-4,5,6,7-tetrahydro[1,3]thiazolo[5,4-c]pyridine-2-carboxamide], for which the IC50 was no less than 0.2 µM.
In the case of `CN(C)c1ccc(NC(=NC#N)N2CCc3nc(C(=O)Nc4ccccc4N)sc3C2)cc1` [Example 120, N-(2-aminophenyl)-5-[(cyanoimino){[4-(dimethylamino)phenyl]amino}methyl]-4,5,6,7-tetrahydro[1,3]thiazolo[5,4-c]pyridine-2-carboxamide], the half-maximal inhibitory concentration (IC50) is no less than 0.2 µM.
